This is an account of results in US10646442B2, “Liposome composition and method for producing same” (FUJIFILM Corporation, priority 2014, dated 2020).

Molecules are shown by their SMILES. Structures can show the parent of a compound that is named as a salt.

Data set [1] has as its system Capan-1 (human pancreatic cancer cell line). Kind of data set: In vitro cancer cell growth inhibition. The conditions noted are these: Capan-1, cultured 144 hours, Luminescent Cell Viability Assay, read-out: IC50 (drug effect concentration that inhibits 50% of cancer cell growth). Format: cell-based. As to the method: 2×10^3 cells/[…]/well of Capan-1 (human pancreatic cancer cell line) were seeded onto a 96-well plate. Subsequently, a free drug (gemcitabine hydrochloride) solution, and a drug encapsulated in the liposome compositions of Example 4 and Comparative Examples 4 and 5 were added at each concentration, and cultured until after 144 hours. The cell viability was calculated from the amount of luminescence obtained by a Luminescent Cell Viability Assay after the completion of the culture. In addition, a drug effect concentration (IC50) that inhibits 50% of cancer cell growth was determined.

For data set [2] the following is noted: reference value for free drug in mice; not among the administered groups; cited from earlier work.
Data set [3] is described as follows: Retentivity in blood (free pemetrexed concentration in blood plasma). Type of data set: in vivo. The conditions noted are these: mouse, intravenous, 6 mg/kg in terms of drug amount, tail vein injection, male C3H mice. As for the experimental part: Further, the liposome composition of Example 10 at a dose of 6 mg/kg in terms of drug amount was administered via tail vein injection to 8-week old male C3H mice under the non-fasting conditions. Blood was collected at 15 minutes, 1 hour, 4 hours, and 24 hours after the administration was completed, and the free pemetrexed concentration in blood plasma was quantified to calculate a T1/2.

`Nc1ccn([C@@H]2O[C@H](CO)[C@@H](O)C2(F)F)c(=O)n1` [free drug, gemcitabine hydrochloride]: the IC50 in data set [1] came out at 7 nM. In addition, the “T1/2 of free gemcitabine in mice” value in data set [2] was 42 min.

In general, half-life refers to the time needed for the level to fall by half in the phase considered. A higher half-life goes with slow decline. For `Nc1nc2[nH]cc(CCc3ccc(C(=O)N[C@@H](CCC(=O)O)C(=O)O)cc3)c2c(=O)[nH]1` [drug aqueous solution, pemetrexed disodium heptahydrate], in data set [3], the half-life is 120 min.
